Laboratory results reported in patent publication US20190167724A1, “NEUROPROTECTIVE COMPOSITION, PREPARATION PROCESS THEREOF AND MEDICAL USES THEREOF” (priority 2017, published 2019).
Marks after values point to notes of the source that are not given here.

Tested on: 6-OHDA induced Parkinson's Disease-like Zebrafish Larvae Model
Experiment: Anti-Parkinson's Disease efficacy test in 6-OHDA zebrafish larvae model
Type: in vivo
Details: soaking at 1.5 μg/mL, co-treated with 6-OHDA

CN1Cc2c(N)cccc2C(c2ccccc2)C1 (centres unmarked) [Nomifensine]
Anti-Parkinson's Disease Efficacy (Motility Increase Rate): 40.9%* | Total Distance (mm) (Mean ± SE) (30 minutes, n = 10): 2738 ± 165 mm
